Values quoted from earlier work in US5308833A, “Method for treating hepatitis B carriers with minimal disease” (SciClone Pharmaceuticals, priority 1992, dated 1994).
Where no end group is shown, it is not given here.

Columns and labels:
lymphocyte = details: individuals suffering from chronic active hepatitis B

thymosin α-1 (SDAAVDTSSEITTKDLKEKKEVVEEAEN; ends and bridges not checked; UniProt P06454 2-29, looked up) [28 amino acid peptide originally isolated from calf thymus thymosin fraction 5]
hepatitis B virus DNA in serum (hepatitis B virus; patients with chronic active hepatitis B administered the peptide): cleared hepatitis B virus DNA from serum | serum HBV DNA after treatment was terminated (hepatitis B virus; patients with chronic active hepatitis B, after treatment was terminated): tested persistently negative for serum HBV DNA | lymphocyte counts (lymphocyte): increases in lymphocyte counts | production of γ-interferon (lymphocyte): enhance production of γ-interferon
